Assays:
Assay type in all cases: biochemical
Wild-type cruzipain = Wild-type cruzipain (Trypanosoma cruzi, UniProt P25779); assay: Trypanosoma cruzi cruzipain peptidase activity assay (Ki); settings: read-out: Ki, inhibitors of cruzain and cruzipains
Outline: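 Native cruzipain from T. cruzi Dm28 epimastigotes, 2.5 nM, in 100 mM sodium phosphate pH 6.75 with 1 mM EDTA and 10 mM L-cysteine, 25 °C, DMSO <1%. Rates taken from continuous fluorogenic substrate read; Ki by regression assuming reversible pure-competitive inhibition.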

human cathepsin B = biological target: T1, human cathepsin B (Homo sapiens, UniProt P07858); assay: Cathepsin B peptidase activity assay (Ki); settings: read-out: Ki, inhibitors of cathepsin B
T1 construct: purchased CN Biosciences
Outline: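 Buffer: 10 mM bis-tris-propane pH 6.5, 1 mM EDTA, 5 mM 2-mercaptoethanol, 1 mM CaCl2; DMSO <1%. Ki assumed reversible, pure-competitive, from Ki^app=Ki(1+[So]/KM^app) by non-linear regression.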

Bovine cathepsin S = biological target: T2, Bovine cathepsin S (Bos taurus, UniProt P25326); assay: Cathepsin S peptidase activity assay, bovine enzyme (Ki); settings: species of cathepsin S not given; read-out: Ki, inhibitors of cathepsin S
T2 construct: purchased CN Biosciences
Outline: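 Bovine cathepsin S activity followed by fluorescence increase from substrate conversion to product over time, enzyme added to start the reaction, at 25±1° C. Buffer 10 mM bis-tris-propane pH 6.5 with 1 mM EDTA, 5 mM 2-mercaptoethanol, 1 mM CaCl2; DMSO kept below 1% (vol./vol.).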

CPB2.8ΔCTE = biological target: T3, CPB2.8ΔCTE (Leishmania mexicana, UniProt P36400); assay: Leishmania mexicana cysteine protease B (CPB) peptidase activity assay (Ki); settings: Ki, inhibitors of Leismania mexicana CPB protease
T3 construct: Wild-type recombinant CPB without the C-terminal extention (i.e. CPB2.8ΔCTE); Dr. Jeremy Mottram (Wellcome Centre for Molecular Parasitology, University of Glasgow)
Outline: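 Apparent Ki was derived by regression of activity against inhibitor concentration, assuming pure-competitive reversible binding. Reaction: 0.25 nM CPB lacking the C-terminal extension, pH 5.5 acetate buffer (1 mM EDTA, 200 mM NaCl, 10 mM DTT), 25 °C, followed by continuous substrate fluorescence.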

human cathepsin L = biological target: T4, human cathepsin L (Homo sapiens, UniProt P07711); assay: Cathepsin L peptidase activity assay (Ki); settings: read-out: Ki, inhibitors of cathepsin L
T4 construct: purchased CN Biosciences
Outline: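 Run at 25±1° C with DMSO under 1%: buffer was 10 mM BTP pH 6.5 containing 1 mM EDTA, 1 mM CaCl2 and 5 mM 2-mercaptoethanol. Enzyme (1 nM cathepsin L) was added last to start hydrolysis of Ac-Phe-Arg-AMC held at KM^app (~20 μM), followed kinetically by fluorescence at 365/450 nm.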

Measured: Ki

Wild-type cruzipain, sequence (P25779 whole entry): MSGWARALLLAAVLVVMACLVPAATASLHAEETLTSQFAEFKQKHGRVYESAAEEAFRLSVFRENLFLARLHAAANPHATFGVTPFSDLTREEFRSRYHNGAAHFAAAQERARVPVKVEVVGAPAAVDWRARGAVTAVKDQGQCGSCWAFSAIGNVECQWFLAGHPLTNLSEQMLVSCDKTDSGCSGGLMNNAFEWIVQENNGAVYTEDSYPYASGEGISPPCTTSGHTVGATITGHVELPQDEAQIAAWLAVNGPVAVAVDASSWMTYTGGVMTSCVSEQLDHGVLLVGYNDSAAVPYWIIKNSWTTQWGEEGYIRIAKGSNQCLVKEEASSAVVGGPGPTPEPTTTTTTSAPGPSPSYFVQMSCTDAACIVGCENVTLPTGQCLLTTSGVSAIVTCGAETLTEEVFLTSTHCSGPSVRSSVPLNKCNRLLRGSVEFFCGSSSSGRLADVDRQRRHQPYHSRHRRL
T2 sequence (P25326 115-331): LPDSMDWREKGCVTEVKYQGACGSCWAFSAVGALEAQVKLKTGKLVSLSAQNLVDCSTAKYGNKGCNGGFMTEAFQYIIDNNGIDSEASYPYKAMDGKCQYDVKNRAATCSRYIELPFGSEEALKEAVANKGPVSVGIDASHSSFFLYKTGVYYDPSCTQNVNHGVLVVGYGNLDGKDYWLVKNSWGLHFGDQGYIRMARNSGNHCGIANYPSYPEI
T3 sequence (P36400 126-343, stated change not applied): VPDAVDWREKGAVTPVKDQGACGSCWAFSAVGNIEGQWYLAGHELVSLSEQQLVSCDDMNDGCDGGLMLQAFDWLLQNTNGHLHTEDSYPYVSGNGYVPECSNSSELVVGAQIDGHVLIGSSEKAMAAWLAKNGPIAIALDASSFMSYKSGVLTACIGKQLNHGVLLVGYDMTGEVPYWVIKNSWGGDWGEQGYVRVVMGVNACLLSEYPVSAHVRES
T4 sequence (P07711 114-333): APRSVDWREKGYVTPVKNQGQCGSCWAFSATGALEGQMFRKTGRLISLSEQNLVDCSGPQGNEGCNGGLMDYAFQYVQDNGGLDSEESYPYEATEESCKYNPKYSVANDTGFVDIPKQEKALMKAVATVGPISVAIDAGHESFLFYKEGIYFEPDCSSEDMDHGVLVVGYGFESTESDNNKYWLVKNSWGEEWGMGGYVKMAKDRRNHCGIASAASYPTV

O=C(N[C@@H](Cc1ccc(O)cc1)C(=O)N1CC[C@@H]2[C@H]1C(=O)CN2C(=O)c1csc2ccccc12)c1cccc(Br)c1 [Example 323, (3aR,6aS)-N-[(1S)-2-[4-(Benzo[b]thiophene-3-carbonyl)-6-oxo-hexahydro-pyrrolo[3,2-b]pyrrole-1-yl]-1-(4-hydroxy-benzyl)-2-oxo-ethyl]-3-bromo-benzamide]
< 5 µM: Wild-type cruzipain | human cathepsin B | Bovine cathepsin S

Nc1ccc(C(=O)N2CC(=O)[C@@H]3[C@H]2CCN3C(=O)[C@H](Cc2ccc(O)cc2)NC(=O)c2cccc(Br)c2)cc1 [Example 310, (3aR,6aS)-N-[(1S)-2-[4-(4-Amino-benzoyl)-6-oxo-hexahydro-pyrrolo[3,2-b]pyrrole-1-yl]-1-(4-hydroxy-benzyl)-2-oxo-ethyl]-3-bromo-benzamide]
< 5 µM: human cathepsin B | Bovine cathepsin S

Cc1cccc(C[C@H](NC(=O)C(c2ccccc2)c2ccccc2)C(=O)N2CC[C@@H]3[C@H]2C(=O)CN3C(=O)c2csc3ccccc23)c1 [Example 314]
not listed: human cathepsin L
< 5 µM: all other assays above

O=C(N[C@@H](Cc1ccc(O)cc1)C(=O)N1CC[C@@H]2[C@H]1C(=O)CN2C(=O)c1csc2ccccc12)C(c1ccccc1)c1ccccc1 [Example 329, (3aR,6aS)-N-[(1S)-2-[4-(Benzo[b]thiophene-3-carbonyl)-6-oxo-hexahydro-pyrrolo[3,2-b]pyrrole-1-yl]-1-(4-hydroxy-benzyl)-2-oxo-ethyl]-2,2-diphenyl-acetamide]
not listed: human cathepsin L
< 5 µM: all other assays above

O=C(N[C@@H](Cc1ccc(O)cc1)C(=O)N1CC[C@@H]2[C@H]1C(=O)CN2C(=O)c1ccccc1)c1cccc(Br)c1 [Example 298, (3aR,6aS)-N-[(1S)-2-(4-Benzoyl-6-oxo-hexahydro-pyrrolo[3,2-b]pyrrol-1-yl)-1-(4-hydroxy-benzyl)-2-oxo-ethyl]-3-bromo-benzamide]
< 5 µM: Wild-type cruzipain | human cathepsin B | Bovine cathepsin S

O=C(N[C@@H](Cc1ccc(O)cc1)C(=O)N1CC[C@@H]2[C@H]1C(=O)CN2C(=O)c1ccccc1)C(c1ccccc1)c1ccccc1 [Example 330, (3aR,6aS)-N-[(1S)-2-(4-Benzoyl-6-oxo-hexahydro-pyrrolo[3,2-b]pyrrol-1-yl)-1-(4-hydroxy-benzyl)-2-oxo-ethyl]-2,2-diphenyl-acetamide]
not listed: human cathepsin L
< 5 µM: all other assays above

O=C(N[C@@H](Cc1cccc(F)c1)C(=O)N1CC[C@@H]2[C@H]1C(=O)CN2C(=O)c1csc2ccccc12)C(c1ccccc1)c1ccccc1 [Example 315, (3aR,6aS)-N-[(1S)-2-[4-(Benzo[b]thiophene-3-carbonyl)-6-oxo-hexahydro-pyrrolo[3,2-b]pyrrole-1-yl]-1-(3-fluoro-benzyl)-2-oxo-ethyl]-2,2-diphenyl-acetamide]
not listed: human cathepsin L
< 5 µM: all other assays above

O=C(N[C@@H](Cc1cc(F)cc(F)c1)C(=O)N1CC[C@@H]2[C@H]1C(=O)CN2C(=O)c1csc2ccccc12)C(c1ccccc1)c1ccccc1 [Example 316, (3aR,6aS)-N-[(1S)-2-[4-(Benzo[b]thiophene-3-carbonyl)-6-oxo-hexahydro-pyrrolo[3,2-b]pyrrole-1-yl]-1-(3,5-difluoro-benzyl)-2-oxo-ethyl]-2,2-diphenyl-acetamide]
not listed: human cathepsin L
< 5 µM: all other assays above

CC(C)C[C@H](NC(=O)c1ccc(N)cc1)C(=O)N1CC[C@@H]2[C@H]1C(=O)CN2C(=O)c1cccc(S(C)(=O)=O)c1 [Example 61, (3aR,6aS)-4-Amino-N-{(1S)-1-[4-(3-methanesulfonyl-benzoyl)-6-oxo-hexahydro-pyrrolo[3,2-b]pyrrole-1-carbonyl]-3-methyl-butyl}-benzamide]
< 5 µM: Wild-type cruzipain | human cathepsin B | Bovine cathepsin S

CC(C)C[C@H](NC(=O)c1cccc(CN)c1)C(=O)N1CC[C@@H]2[C@H]1C(=O)CN2C(=O)c1ccccc1 [Example 92, (3aR,6aS)-3-Aminomethyl-N-[(1S)-1-(4-benzoyl-6-oxo-hexahydro-pyrrolo[3,2-b]pyrrole-1-carbonyl)-3-methyl-butyl]-benzamide]
not listed: human cathepsin B
< 5 µM: all other assays above

Cc1ccc(C(=O)N[C@@H](CC(C)C)C(=O)N2CC[C@@H]3[C@H]2C(=O)CN3C(=O)c2ccccc2)cc1 [Example 170]
not listed: human cathepsin B
< 5 µM: all other assays above

CC(C)C[C@H](NC(=O)c1ccc(N2CCCC2)cc1)C(=O)N1CC[C@@H]2[C@H]1C(=O)CN2C(=O)c1ccccc1 [Example 193, (3aR,6aS)-N-[(1S)-1-(4-Benzoyl-6-oxo-hexahydro-pyrrolo[3,2-b]pyrrole-1-carbonyl)-3-methyl-butyl]-4-pyrrolidin-1-yl-benzamide]
not listed: human cathepsin B
< 5 µM: all other assays above

CC(C)C[C@H](NC(=O)c1ccc(Oc2ccccc2)cc1)C(=O)N1CC[C@@H]2[C@H]1C(=O)CN2C(=O)c1ccccc1 [Example 39, (3aR,6aS)-N-[(1S)-1-(4-Benzoyl-6-oxo-hexahydro-pyrrolo[3,2-b]pyrrole-1-carbonyl)-3-methyl-butyl]-4-phenoxy-benzamide]
not listed: human cathepsin L
< 5 µM: all other assays above

Source: patent US20060100431A1, “Biologically active compounds” (Amura Therapeutics Limited, priority 2002, published 2006)
